According to patent publication US10669272B2, “Substituted naphthyridinone compounds useful as T cell activators” (BRISTOL-MYERS SQUIBB COMPANY, priority 2018, dated 2020):
Where a name gives a salt, the structure may show the parent alone. Read-outs that look alike come from different tables or passages of the source.

Tests used:
[1] = molecular target: T1, human DGKζ (Homo sapiens, UniProt Q13574); assay: DGKζ LIPGLO assay (extruded liposome substrate), in vitro DGK inhibition; type: biochemical; details: read-out: DGKz LIPGLO IC50
T1 construct: TVMV protease cleavage site (C); Hexa-His (C); made in house; host or cells: Sf9 insect cells (baculovirus, Bac-to-Bac)

[2] = molecular target: T2, human DGKα (Homo sapiens, UniProt P23743); assay: DGKα LIPGLO assay (extruded liposome substrate), in vitro DGK inhibition; type: biochemical; details: read-out: DGKa LIPGLO IC50
T2 construct: TVMV protease cleavage site (C); Hexa-His (C); made in house; host or cells: Sf9 insect cells (baculovirus, Bac-to-Bac)
T2 sequence (P23743 with tags, fused parts or gaps): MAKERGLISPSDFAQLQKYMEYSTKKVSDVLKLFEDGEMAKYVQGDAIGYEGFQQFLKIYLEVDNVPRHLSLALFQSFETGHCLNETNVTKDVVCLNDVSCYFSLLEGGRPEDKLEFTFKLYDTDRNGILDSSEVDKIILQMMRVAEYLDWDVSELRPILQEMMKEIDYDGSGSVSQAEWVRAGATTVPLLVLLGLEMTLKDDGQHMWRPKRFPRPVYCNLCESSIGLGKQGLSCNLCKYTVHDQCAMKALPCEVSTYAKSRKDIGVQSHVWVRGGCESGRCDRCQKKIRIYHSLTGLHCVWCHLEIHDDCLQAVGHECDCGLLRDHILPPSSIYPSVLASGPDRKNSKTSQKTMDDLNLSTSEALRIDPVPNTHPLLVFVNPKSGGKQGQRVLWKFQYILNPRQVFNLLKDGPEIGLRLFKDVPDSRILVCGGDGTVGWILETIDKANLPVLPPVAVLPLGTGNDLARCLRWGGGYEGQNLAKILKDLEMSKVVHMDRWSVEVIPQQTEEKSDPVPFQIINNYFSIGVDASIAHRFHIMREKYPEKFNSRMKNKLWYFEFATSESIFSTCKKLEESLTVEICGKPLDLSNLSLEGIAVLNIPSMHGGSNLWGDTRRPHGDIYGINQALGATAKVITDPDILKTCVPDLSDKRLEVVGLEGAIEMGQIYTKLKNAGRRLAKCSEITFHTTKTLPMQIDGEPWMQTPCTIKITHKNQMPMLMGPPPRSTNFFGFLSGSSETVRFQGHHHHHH

T1 sequence (Q13574 with tags, fused parts or gaps isoform Q13574-4): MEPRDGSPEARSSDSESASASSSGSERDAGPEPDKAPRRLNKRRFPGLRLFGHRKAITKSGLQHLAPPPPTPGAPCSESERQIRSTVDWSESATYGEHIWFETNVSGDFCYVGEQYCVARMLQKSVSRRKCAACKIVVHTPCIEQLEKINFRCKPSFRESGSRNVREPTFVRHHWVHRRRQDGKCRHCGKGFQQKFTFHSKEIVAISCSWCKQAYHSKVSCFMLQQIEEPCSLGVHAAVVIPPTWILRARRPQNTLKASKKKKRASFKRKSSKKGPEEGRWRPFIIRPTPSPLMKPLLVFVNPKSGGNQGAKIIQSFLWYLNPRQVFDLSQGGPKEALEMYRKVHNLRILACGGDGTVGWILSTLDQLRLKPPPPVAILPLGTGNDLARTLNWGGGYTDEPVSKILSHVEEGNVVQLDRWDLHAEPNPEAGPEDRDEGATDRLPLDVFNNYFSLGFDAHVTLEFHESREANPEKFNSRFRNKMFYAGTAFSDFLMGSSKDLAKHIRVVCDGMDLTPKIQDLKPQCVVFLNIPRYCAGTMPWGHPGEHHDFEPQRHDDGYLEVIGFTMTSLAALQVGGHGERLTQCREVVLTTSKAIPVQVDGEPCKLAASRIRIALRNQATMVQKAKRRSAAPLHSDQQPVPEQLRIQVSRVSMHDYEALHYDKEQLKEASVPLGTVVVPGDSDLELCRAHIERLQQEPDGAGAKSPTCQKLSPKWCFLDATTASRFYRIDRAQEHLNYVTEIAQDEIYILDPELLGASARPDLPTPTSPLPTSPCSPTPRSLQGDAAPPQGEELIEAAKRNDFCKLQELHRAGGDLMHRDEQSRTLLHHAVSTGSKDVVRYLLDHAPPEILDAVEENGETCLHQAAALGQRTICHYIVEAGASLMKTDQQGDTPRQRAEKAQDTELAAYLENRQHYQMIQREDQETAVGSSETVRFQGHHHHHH

Compound | IC50 ([1]; liposome (LIPGLO) assay) [µM] | IC50 ([2]; liposome (LIPGLO) assay) [µM] | IC50 ([1]; DGKζ liposome (LIPGLO) assay) [µM] | IC50 ([2]; DGKα liposome (LIPGLO) assay) [µM]
Cn1c(=O)cc(N2CCN(C(c3ccc(F)cc3)c3ccc(F)cc3)CC2CF)c2nc(C#N)ccc21 (racemic) [Example 149, 8-(4-(bis(4-fluorophenyl)methyl)-2-(fluoromethyl)piperazin-1-yl)-5-methyl-6-oxo-5,6-dihydro-1,5-naphthyridine-2-carbonitrile] | 21 | 35 | – | –
C[C@@H]1CN(c2cc(=O)n(C)c3ccc(C#N)nc23)[C@@H](C)CN1C(CF)c1ccc(F)cc1 (mixture of isomers) [Example 556, 8-[(2S,5R)-4-[2-fluoro-1-(4-fluorophenyl)ethyl]-2,5-dimethylpiperazin-1-yl]-5-methyl-6-oxo-5,6-dihydro-1,5-naphthyridine-2-carbonitrile] | 6 | 2.6 | – | –
Cn1c(=O)c(C#N)c(N2CCN(C(c3ccc(F)cc3)c3ccc(F)cc3)C(C(N)=O)C2)c2nc(C#N)ccc21 (single isomer, unassigned) [Example 58, 1-(bis (4-fluorophenyl)methyl)-4-(3,6-dicyano-1-methyl-2-oxo-1,2-dihydro-1,5-naphthyridin-4-yl)piperazine-2-carboxamide] | 180 | 7.2 | – | –
CC(C)C(C)(F)C1CN(c2cc(=O)n(C)c3ccc(C#N)nc23)CCN1C(c1ccc(F)cc1)c1ccc(F)cc1 (single isomer, unassigned) [Example 91, 8-(4-(bis(4-fluorophenyl)methyl)-3-(2-fluoro-3-methylbutan-2-yl)piperazin-1-yl)-5-methyl-6-oxo-5,6-dihydro-1,5-naphthyridine-2-carbonitrile, TFA] | 240 | 240 | – | –
COc1cc(F)ccc1C(c1ccc(F)cc1)N1C[C@H](C)N(c2c([N+](=O)[O-])c(=O)n(C)c3ccc(C#N)nc23)C[C@H]1C (single isomer, unassigned) [Example 121] | 52 | 240 | – | –
Cn1c(=O)cc(N2CCN(C(c3ccc(F)cc3)c3ccc(F)cc3)CC2C(N)=O)c2nc(C#N)ccc21 (single isomer, unassigned) [Example 141, 4-(bis(4-fluorophenyl)methyl)-1-(6-cyano-1-methyl-2-oxo-1,2-dihydro-1,5-naphthyridin-4-yl)piperazine-2-carboxamide] | 200 | 240 | – | –
Cn1c(=O)cc(N2CC(C3CC3)N(C(c3ccc(F)cc3)c3ccc(F)cc3)CC2C2CC2)c2nc(C#N)ccc21 (single isomer, unassigned) [Example 152, 8-(4-(bis(4-fluorophenyl)methyl)-2,5-dicyclopropylpiperazin-1-yl)-5-methyl-6-oxo-5,6-dihydro-1,5-naphthyridine-2-carbonitrile] | 240 | 7.7 | – | –
Cn1c(=O)cc(N2CC(C3CC3)N(C(c3ccc(F)cc3)c3ccc(F)cc3)CC2C2CC2)c2nc(C#N)ccc21 (single isomer, unassigned) [Example 153, 8-(4-(bis(4-fluorophenyl)methyl)-2,5-dicyclopropylpiperazin-1-yl)-5-methyl-6-oxo-5,6-dihydro-1,5-naphthyridine-2-carbonitrile] | 240 | 240 | – | –
C[C@@H]1CN(c2c(C#N)c(=O)n(C)c3ccc(C#N)nc23)CCN1C(c1ccc(Cl)cc1)c1ccncn1 (single isomer, unassigned) [Example 320] | 28 | 9.3 | – | –
C[C@@H]1CN(c2cc(=O)n(C)c3ccc(C#N)nc23)[C@@H](C)CN1C(c1cccc(F)c1)c1ccc(C(F)(F)F)cn1 (single isomer, unassigned) [Example 371] | 2.1 | 3 | – | –
C[C@@H]1CN(c2cc(=O)n(C)c3ccc(C#N)nc23)[C@@H](C)CN1C(c1ccc(F)cc1)c1cncc(F)c1 (single isomer, unassigned) [Example 386] | 4.6 | 2.3 | – | –
C[C@@H]1CN(c2cc(=O)n(C)c3ccc(C#N)nc23)[C@@H](C)CN1C(c1ccc(F)cc1)C1CCOCC1 (single isomer, unassigned) [Example 388] | 14 | 8.5 | – | –
CCC(c1ccc(F)c(F)c1)N1C[C@H](C)N(c2cc(=O)n(C)c3ccc(C#N)nc23)C[C@H]1C (single isomer, unassigned) [Example 411] | 19 | 22 | – | –
CC(c1ccc(C(F)(F)F)cc1F)N1C[C@H](C)N(c2cc(=O)n(C)c3ccc(C#N)nc23)C[C@H]1C (single isomer, unassigned) [Example 412] | 13 | 12 | – | –
Cc1ncc(C(c2ccc(Cl)cc2)N2CCN(c3c(C#N)c(=O)n(C)c4ccc(C#N)nc34)C[C@H]2C)cn1 (single isomer, unassigned) [Example 413] | 15 | 12 | – | –
C[C@@H]1CN(c2cc(=O)n(C)c3ccc(C#N)nc23)[C@@H](C)CN1C(c1ccc(Cl)cc1)c1ccc(F)c2c1OC(C)(C)C2 (single isomer, unassigned) [Example 459] | 1.1 | 36 | – | –
Cc1c(F)ccc(C(C)N2C[C@H](C)N(c3cc(=O)n(C)c4ccc(C#N)nc34)C[C@H]2C)c1Cl (single isomer, unassigned) [Example 487] | 11 | 41 | – | –
CC(c1c(F)cc(F)cc1F)N1C[C@H](C)N(c2cc(=O)n(C)c3ccc(C#N)nc23)C[C@H]1C (single isomer, unassigned) [Example 488] | 11 | 15 | – | –
C[C@@H]1CN(c2cc(=O)n(C)c3ccc(C#N)nc23)[C@@H](C)CN1C(c1ccc(Cl)cc1)c1ccc2c(c1)OC(F)(F)O2 (single isomer, unassigned) [Example 656] | 4 | 23 | – | –
C[C@@H]1CN(c2cc(=O)n(C)c3ccc(C#N)nc23)[C@@H](C)CN1C(c1ccc(F)cc1)c1ccccc1N1CCOCC1 (single isomer, unassigned) [Example 664] | 4.5 | > 250 | – | –
C[C@@H]1CN(c2cc(=O)n(C)c3ccc(C#N)nc23)[C@@H](C)CN1C(c1ccc(F)cc1)c1ccccc1N1CCOCC1 (single isomer, unassigned) [Example 665] | > 250 | > 250 | – | –
C[C@@H]1CN(c2cc(=O)n(C)c3ccc(C#N)nc23)[C@@H](C)CN1C(c1ccc(F)cc1)c1cnccn1 (single isomer, unassigned) [Example 675] | 23 | 4.6 | – | –
C[C@@H]1CN(c2cc(=O)n(C)c3ccc(C#N)nc23)[C@@H](C)CN1C(c1ccc(F)cc1)c1noc(C(C)(C)C)n1 (single isomer, unassigned) [Example 764] | – | – | 0.53 | 0.051
C[C@@H]1CN(c2cc(=O)n(C)c3ccc(C#N)nc23)[C@@H](C)CN1C(c1ccc(F)cc1)c1noc(C(C)(C)C)n1 (single isomer, unassigned) [Example 765] | – | – | 0.13 | 0.62
CC[C@H]1CN(C(c2ccc(F)cc2)c2nc(C3CC3)no2)[C@H](CC)CN1c1cc(=O)n(C)c2ccc(C#N)nc12 (stereo partly drawn) [Example 1065] | 0.031 | – | – | –
C[C@@H]1CN(c2cc(=O)n(C)c3ccc(C#N)nc23)[C@@H](C)CN1Cc1cn(C)nn1 [Example 1435] | – | 160 | – | –
Cc1nnc(C(C)N2C[C@H](C)N(c3cc(=O)n(C)c4ccc(C#N)nc34)C[C@H]2C)o1 (stereo partly drawn) [Example 1437] | – | 150 | – | –

The remaining lines, values ahead:

IC50 ([1]; liposome (LIPGLO) assay) [µM] | IC50 ([2]; liposome (LIPGLO) assay) [µM] | IC50 ([1]; DGKζ liposome (LIPGLO) assay) [µM] | IC50 ([2]; DGKα liposome (LIPGLO) assay) [µM] | Compound
3.4 | 0.71 | – | – | C[C@@H]1CN(c2c(C#N)c(=O)n(C)c3ccc(C#N)nc23)CCN1C(c1ccc(F)cc1)c1ccncn1 (single isomer, unassigned) [Example 312]
4.8 | 2.3 | – | – | C[C@@H]1CN(c2c(C#N)c(=O)n(C)c3ccc(C#N)nc23)CCN1C(c1ccc(F)cc1)c1ccncn1 (single isomer, unassigned) [Example 313]
3.9 | 1.6 | – | – | Cc1ccnc(C(c2ccc(Cl)cc2)N2C[C@H](C)N(c3cc(=O)n(C)c4ccc(C#N)nc34)C[C@H]2C)c1 (single isomer, unassigned) [Example 364]
3.8 | 0.57 | – | – | C[C@@H]1CN(c2cc(=O)n(C)c3ccc(C#N)nc23)[C@@H](C)CN1C(c1cccc(F)c1)c1ccccn1 (single isomer, unassigned) [Example 374]
6.9 | 1.5 | – | – | C[C@@H]1CN(c2cc(=O)n(C)c3ccc(C#N)nc23)[C@@H](C)CN1C(c1ccc(F)cc1)c1cccnn1 (single isomer, unassigned) [Example 384]
16 | 1.8 | – | – | C[C@@H]1CN(c2cc(=O)n(C)c3ccc(C#N)nc23)[C@@H](C)CN1C(c1ccc(Cl)cc1)c1ccncn1 (single isomer, unassigned) [Example 397]
9.3 | 0.82 | – | – | C[C@@H]1CN(c2cc(=O)n(C)c3ccc(C#N)nc23)[C@@H](C)CN1C(c1ccc(F)cc1)c1ccncn1 (single isomer, unassigned) [Example 402]
2.9 | 0.58 | – | – | COCC(c1ccc(F)cc1)N1C[C@H](C)N(c2cc(=O)n(C)c3ccc(C#N)nc23)C[C@H]1C (single isomer, unassigned) [Example 560]
24 | 0.66 | – | – | C[C@@H]1CN(c2cc(=O)n(C)c3ccc(C#N)nc23)[C@@H](C)CN1Cc1ccc(OC(F)(F)F)cc1F (single isomer, unassigned) [Example 624]
3.9 | 0.59 | – | – | Cc1cc(C(C)N2C[C@H](C)N(c3cc(=O)n(C)c4ccc(C#N)nc34)C[C@H]2C)no1 (single isomer, unassigned) [Example 648]
4.3 | 0.4 | – | – | C[C@@H]1CN(c2cc(=O)n(C)c3ccc(C#N)nc23)[C@@H](C)CN1C(c1ccc(F)cc1)c1cnccn1 (single isomer, unassigned) [Example 674]
0.12 | 0.84 | – | – | C[C@@H]1CN(c2cc(=O)n(C)c3ccc(C#N)nc23)[C@@H](C)CN1C(c1ccc(F)cc1)c1cccc2ccnn12 (single isomer, unassigned) [Example 694]
